Laboratory results from PubChem BioAssay AID1259407 (Chemical Carcinogenesis Research Information System (CCRIS), 2018).
The source made the active and inactive calls. No rule for the calls is given here.

System: CCRIS mutagenicity, Ames/micronucleus/aberration tests
Experiment: CCRIS mutagenicity studies
[1] = Test System: AMES SALMONELLA TYPHIMURIUM, Strain/Indicator: TA100, Metabolic Activation: NONE, Method: STANDARD PLATE
[2] = Test System: AMES SALMONELLA TYPHIMURIUM, Strain/Indicator: TA100, Metabolic Activation: RAT, LIVER, S-9, AROCLOR 1254, Method: STANDARD PLATE

Measured: mutagenic call

CCCCOC(=O)CCCCCCCCC(=O)OCCCC
inactive: Test System: AMES SALMONELLA TYPHIMURIUM, Strain/Indicator: TA97, Metabolic Activation: NONE, Method: STANDARD PLATE inactive; negative | Test System: AMES SALMONELLA TYPHIMURIUM, Strain/Indicator: TA97, Metabolic Activation: S-9, Method: STANDARD PLATE inactive; negative | Test System: AMES SALMONELLA TYPHIMURIUM, Strain/Indicator: TA98, Metabolic Activation: NONE, Method: STANDARD PLATE inactive; negative | Test System: AMES SALMONELLA TYPHIMURIUM, Strain/Indicator: TA98, Metabolic Activation: S-9, Method: STANDARD PLATE inactive; negative | [1] inactive; negative | Test System: AMES SALMONELLA TYPHIMURIUM, Strain/Indicator: TA100, Metabolic Activation: S-9, Method: STANDARD PLATE inactive; negative | Test System: AMES SALMONELLA TYPHIMURIUM, Strain/Indicator: TA102, Metabolic Activation: NONE, Method: STANDARD PLATE inactive; negative | Test System: AMES SALMONELLA TYPHIMURIUM, Strain/Indicator: TA102, Metabolic Activation: S-9, Method: STANDARD PLATE inactive; negative | Test System: E.COLI, Strain/Indicator: WP2 (PKM101), Metabolic Activation: NONE, Method: STANDARD PLATE inactive; negative | Test System: E.COLI, Strain/Indicator: WP2 (PKM101), Metabolic Activation: S-9, Method: STANDARD PLATE inactive; negative

Oc1ccc2ncccc2c1
inactive: [1] inactive; negative | Test System: AMES SALMONELLA TYPHIMURIUM, Strain/Indicator: TA100, Metabolic Activation: RAT, LIVER, S-9, AROCLOR 1254 (10% OR 20%), Method: STANDARD PLATE inactive; negative

N=C1C=CC2=CC(S(=O)(=O)O)=CC(=O)C2=C1NNc1ccc(-c2ccc(N=Nc3cc(S(=O)(=O)O)c4ccccc4c3N)cc2)cc1
active: Test System: AMES SALMONELLA TYPHIMURIUM, Strain/Indicator: TA98, Metabolic Activation: HAMSTER, LIVER, S-9, Method: PREINCUBATION (PRIVAL METHOD) active; positive

O=C(O)/C=C(\CCl)C(Cl)Cl
inactive: Test System: AMES SALMONELLA TYPHIMURIUM, Strain/Indicator: TA98, Metabolic Activation: NONE, Method: PREINCUBATION inactive; negative | Test System: AMES SALMONELLA TYPHIMURIUM, Strain/Indicator: TA104, Metabolic Activation: NONE, Method: PREINCUBATION inactive; negative
active: Test System: AMES SALMONELLA TYPHIMURIUM, Strain/Indicator: TA100, Metabolic Activation: NONE, Method: PREINCUBATION active; positive

O=C(O)C[C@H](NC(=O)COc1ccc(Cl)cc1Cl)C(=O)O
inactive: Test System: AMES SALMONELLA TYPHIMURIUM, Strain/Indicator: TA97, Metabolic Activation: RAT, LIVER, S-9, AROCLOR 1254, Method: STANDARD PLATE inactive; negative | Test System: AMES SALMONELLA TYPHIMURIUM, Strain/Indicator: TA97, Metabolic Activation: WOODCHUCK, LIVER, S-9, 3-METHYLCHOLANTHRENE, Method: STANDARD PLATE inactive; negative | Test System: AMES SALMONELLA TYPHIMURIUM, Strain/Indicator: TA98, Metabolic Activation: RAT, LIVER, S-9, AROCLOR 1254, Method: STANDARD PLATE inactive; negative | Test System: AMES SALMONELLA TYPHIMURIUM, Strain/Indicator: TA98, Metabolic Activation: WOODCHUCK, LIVER, S-9, 3-METHYLCHOLANTHRENE, Method: STANDARD PLATE inactive; negative | [2] inactive; negative | Test System: AMES SALMONELLA TYPHIMURIUM, Strain/Indicator: TA100, Metabolic Activation: WOODCHUCK, LIVER, S-9, 3-METHYLCHOLANTHRENE, Method: STANDARD PLATE inactive; negative | Test System: AMES SALMONELLA TYPHIMURIUM, Strain/Indicator: TA1535, Metabolic Activation: RAT, LIVER, S-9, AROCLOR 1254, Method: STANDARD PLATE inactive; negative | Test System: AMES SALMONELLA TYPHIMURIUM, Strain/Indicator: TA1535, Metabolic Activation: WOODCHUCK, LIVER, S-9, 3-METHYLCHOLANTHRENE, Method: STANDARD PLATE inactive; negative | Test System: AMES SALMONELLA TYPHIMURIUM, Strain/Indicator: TA1538, Metabolic Activation: RAT, LIVER, S-9, AROCLOR 1254, Method: STANDARD PLATE inactive; negative | Test System: AMES SALMONELLA TYPHIMURIUM, Strain/Indicator: TA1538, Metabolic Activation: WOODCHUCK, LIVER, S-9, 3-METHYLCHOLANTHRENE, Method: STANDARD PLATE inactive; negative

CC(=O)c1ccc[nH]1
inactive: [1] inactive; negative | [2] inactive; negative
